{"source": "patent US12024506B2", "about": "“Compounds” (Oxford University Innovation Limited, priority 2018, dated 2024)"}
{"molecular_target": "T1, GST-human KRas166 (G12V) GPPNHP (Homo sapiens, UniProt P01116, G12V)", "T1 construct": "made in house; host or cells: E. coli C41(DE3)", "assay": "KRas small-molecule screening by SPR (Biacore T200)", "format": "binding", "conditions": "compound 100 uM, 5% DMSO buffer; immobilised GST-KRas166 (G12V) GPPNHP", "method": "For SPR assays pGEX-KRAS(G12V) plasmid was transformed into E. coli C41(DE3). Bacterial cells were cultured at 37° C. to an OD600 of 0.6 and induced with IPTG (final 0.1 mM) at 18° C. over night. The GST fusion proteins were extracted from bacteria pellets after cell disruption in 140 mM NaCl, 2.7 mM KCl, 10 mM NaH2PO4, 1.8 mM KH2PO4, 1 mM EDTA, 2 mM MgCl2 pH 7.4 and purified by glutathione-sepharose column chromatography (GE Healthcare), eluting with 50 mM Tris-HCl pH8.0, 10 mM reduced glutathione, 1 mM DTT, 2 mM MgCl2. The eluted proteins were dialysed against 50 mM Tris-HCl pH8.0, 1 mM DTT, 2 mM MgCl2 and concentrated to 10 mg/ml using a Biomax-30 ULTRAFREE-15 centrifugal filter device (Millipore). Purified KRAS protein was loaded with GPPNHP as described elsewhere (Pacold et al., 2000). Loaded protein was then purified by gel filtration on a HiLoad Superdex-75 HR column (GE Healthcare) in 1×PBS pH7.4, 5 mM MgCl2 and concentrated for storage.\nProtocol for KRas Small-Molecule Screening and Affinity Measurements by SPR\nTo a previously immobilized CM5 chip (GE Healthcare BR-1005-30) with anti GST antibody via amine coupling method, GST in channel 1 and GST-human KRas166 (G12V) GPPNHP in channel 2 were immobilised. GST was immobilised between 2,000 and 5,000 Response units. KRAS166 (G12V) was immobilized between 10,000 to 15,000 Response Units.\nIn a 96 well plate, compounds were diluted in […], 5 mM MgCl2 and 5% DMSO Buffer to a final concentration of 100 uM. DCAl was used as positive control. Experiment also included a solvent correction curve for 5% DMSO. Screening and evaluation of the protein immobilization and the compounds screening was done accordingly to the BIACORE T200 control and evaluation software.\nCalculations for how many response units are required for a 1:1 ratio of compound/protein interaction are shown below. • Protein immobilisation: 10,000 RU; average fragment 300 Da in size. • Rmax=(MWA/MWL)×RL×SM • MWA is the molecular weight of the analyte in Da • MWL is the molecular weight of the ligand in Da • RL is the immobilization level in RU • SM is the molar stoichiometry (assume 1:1) • Rmax=300/47,500×10,000×1 • Rmax=63 RU. Cell Viability Assay protocols Assay 1", "units": {"SPR Response Units": "Response Units"}}
{"smiles": "COc1cccc(-c2cccc3c2O[C@H](CNC(=O)c2ccc(CN4CCN(C)CC4)o2)CO3)n1", "note": "[Example 51, 5-(4-Methyl-piperazin-1-ylmethyl)-furan-2-carboxylic acid [(R)-8-(6-methoxy-pyridin-2-yl)-2,3-dihydro-benzo[1,4]dioxin-2-ylmethyl]-amide]", "SPR Response Units": 32}
{"smiles": "CN1CCN(Cc2ccc(C(=O)NCC3COc4cccc(-c5cccc(=O)[nH]5)c4O3)o2)CC1", "note": "(centres unmarked) [Example 52, 5-(4-Methyl-piperazin-1-ylmethyl)-furan-2-carboxylic acid [8-(6-oxo-1,6-dihydro-pyridin-2-yl)-2,3-dihydro-benzo[1,4]dioxin-2-ylmethyl]-amide]", "SPR Response Units": 18}
{"smiles": "CN(C)CCOc1ccc(C(=O)NCC2COc3cccc(-c4cccc(=O)[nH]4)c3O2)cc1", "note": "(centres unmarked) [Example 53, 4-(2-dimethylamino-ethoxy)-N-[8-(6-oxo-1,6-dihydro-pyridin-2-yl)-2,3-dihydro-benzo[1,4]dioxin-2-ylmethyl]-benzamide]", "SPR Response Units": 52}
{"smiles": "CN(C)Cc1cccc(Nc2ccc(-c3cccc4c3OCCO4)nc2)c1", "note": "[Example 59, [6-(2,3-Dihydro-benzo[1,4]dioxin-5-yl)-pyridin-3-yl]-(3-dimethylaminomethyl-phenyl)-amine]", "SPR Response Units": 79}
{"smiles": "CN(C)Cc1cccc(Nc2ccc(-c3cccc4c3OCCO4)nn2)c1", "note": "[Example 67a, [6-(2,3-Dihydro-benzo[1,4]dioxin-5-yl)-pyridazin-3-yl]-(3-dimethylaminomethyl-phenyl)-amine]", "SPR Response Units": 31}
{"smiles": "c1ccc(CN2CCN(c3cccc4c3OCCO4)CC2)cc1", "note": "[Example 71, 1-Benzyl-4-(2,3-dihydro-benzo[1,4]dioxin-5-yl)-piperazine]", "SPR Response Units": 14}
{"smiles": "COc1nc(-c2cccc3c2OCCO3)ccc1Nc1cccc(CNC(=O)c2cn[nH]c2)c1", "note": "[Example 81, 1H-Pyrazole-4-carboxylic acid 3-[6-(2,3-dihydro-benzo[1,4]dioxin-5-yl)-2-methoxy-pyridin-3-ylamino]-benzylamide]", "SPR Response Units": 109}
{"smiles": "COc1nc(-c2cccc3c2OC(CNC(=O)C2CCOCC2)CO3)ccc1NC(=O)CC1CCN(C)CC1", "note": "(centres unmarked) [Example 82, Tetrahydro-pyran-4-carboxylic acid (8-{6-methoxy-5-[2-(1-methyl-piperidin-4-yl)-acetylamino]-pyridin-2-yl}-2,3-dihydro-benzo[1,4]dioxin-2-ylmethyl)-amide]", "SPR Response Units": 12}
{"smiles": "CN1CCN(Cc2ccc(C(=O)NCC3COc4cccc(-c5ccc(NCC6CCOCC6)cn5)c4O3)o2)CC1", "note": "(centres unmarked) [Example 83, 5-(4-Methyl-piperazin-1-ylmethyl)-furan-2-carboxylic acid (8-{5-[(tetrahydro-pyran-4-ylmethyl)-amino]-pyridin-2-yl}-2,3-dihydro-benzo[1,4]dioxin-2-ylmethyl)-amide]", "SPR Response Units": 16}
{"smiles": "CN1CCC(COc2ccc(-c3cccc4c3OCCO4)nn2)CC1", "note": "[Example 85, 3-(2,3-Dihydro-benzo[1,4]dioxin-5-yl)-6-(1-methyl-piperidin-4-ylmethoxy)-pyridazine]", "SPR Response Units": 20}
{"smiles": "COc1nc(-c2cccc3c2OCCO3)ccc1NC1CCN(C)C1", "note": "(centres unmarked) [Example 86, [6-(2,3-Dihydro-benzo[1,4]dioxin-5-yl)-2-methoxy-pyridin-3-yl]-(1-methyl-pyrrolidin-3-yl)-amine]", "SPR Response Units": 17}
{"smiles": "COc1nc(-c2cccc3c2O[C@H](CNC(=O)c2ccc(CN4CCN(C)CC4)o2)CO3)ccc1N", "note": "[Example 87, 5-(4-Methyl-piperazin-1-ylmethyl)-furan-2-carboxylic acid [(R)-8-(5-amino-6-methoxy-pyridin-2-yl)-2,3-dihydro-benzo[1,4]dioxin-2-ylmethyl]-amide]", "SPR Response Units": 56}
{"smiles": "COc1nc(-c2cccc3c2OC(CNC(=O)C2CCOCC2)CO3)ccc1Nc1cccnc1", "note": "(centres unmarked) [Example 88, Tetrahydro-pyran-4-carboxylic acid {8-[6-methoxy-5-(pyridin-3-ylamino)-pyridin-2-yl]-2,3-dihydro-benzo[1,4]dioxin-2-ylmethyl]-amide]", "SPR Response Units": 161}
{"smiles": "COc1nc(-c2cccc3c2OC(CNC(=O)C2CCOCC2)CO3)ccc1Nc1ccc(C(=O)NCCO)cc1", "note": "(centres unmarked) [Example 89, Tetrahydro-pyran-4-carboxylic acid (8-{5-[4-(2-hydroxy-ethylcarbamoyl)-phenylamino]-6-methoxy-pyridin-2-yl}-2,3-dihydro-benzo[1,4]dioxin-2-ylmethyl)-amide]", "SPR Response Units": 132}
{"smiles": "COc1nc(-c2cccc3c2OC(CNC(=O)C2CCOCC2)CO3)ccc1Nc1cccc(CN2CCN(C(C)=O)CC2)c1", "note": "(centres unmarked) [Example 90, Tetrahydro-pyran-4-carboxylic acid (8-{5-[3-(4-acetyl-piperazin-1-ylmethyl)-phenylamino]-6-methoxy-pyridin-2-yl}-2,3-dihydro-benzo[1,4]dioxin-2-ylmethyl)-amide]", "SPR Response Units": 140}
{"smiles": "CN1CCC(NC(=O)c2ccc(Nc3ccc(-c4cccc5c4OC(CNC(=O)C4CCOCC4)CO5)nc3)cc2)CC1", "note": "(centres unmarked) [Example 91]", "SPR Response Units": 66}
{"smiles": "CN1CCC(CC(=O)Nc2ccc(-c3cccc4c3O[C@H](CNC(=O)C3CCOCC3)CO4)nc2)CC1", "note": "[Example 92, Tetrahydro-pyran-4-carboxylic acid ((R)-8-{5-[2-(1-methyl-piperidin-4-yl)-acetylamino]-pyridin-2-yl}-2,3-dihydro-benzo[1,4]dioxin-2-ylmethyl)-amide]", "SPR Response Units": 7}
{"smiles": "CN(C)Cc1cccc(Nc2ccc(-c3cccc4c3OC(CNC(=O)C3CCOCC3)CO4)nc2)c1", "note": "(centres unmarked) [Example 93]", "SPR Response Units": 39}
{"smiles": "COc1nc(-c2cccc3c2OC(CNC(=O)C2CCOCC2)CO3)ccc1Nc1ccc(C(=O)N(C)C)cc1", "note": "(centres unmarked) [Example 94, Tetrahydro-pyran-4-carboxylic acid {8-[5-(4-dimethyl-carbamoyl-phenylamino)-6-methoxy-pyridin-2-yl]-2,3-dihydro-benzo[1,4]dioxin-2-ylmethyl}-amide]", "SPR Response Units": 111}
{"smiles": "COc1nc(-c2cccc3c2OCCO3)ccc1NC1CCN(C)CC1", "note": "[Example 98, [6-(2,3-Dihydro-benzo[1,4]dioxin-5-yl)-2-methoxy-pyridin-3-yl]-(1-methyl-piperidin-4-yl)-amine]", "SPR Response Units": 21}
{"smiles": "COc1nc(-c2cccc3c2OCCO3)ccc1NC1CCN(C(C)=O)CC1", "note": "[Example 99, 1-{4-[6-(2,3-Dihydro-benzo[1,4]dioxin-5-yl)-2-methoxy-pyridin-3-ylamino]-piperidin-1-yl}-ethanone]", "SPR Response Units": 33}
{"smiles": "CN(C)CCOc1ccc(C(=O)NCC2COc3cccc(-c4cc(N5CCOCC5)ccn4)c3O2)cc1", "note": "(centres unmarked) [Example 102, 4-(2-Dimethylamino-ethoxy)-N-[8-(4-morpholin-4-yl-pyridin-2-yl)-2,3-dihydro-benzo[1,4]dioxin-2-ylmethyl]-benzamide]", "SPR Response Units": 126}
{"smiles": "CN(C)CCOc1ccc(C(=O)NCC2COc3cccc(-c4cccc(N(C)C)n4)c3O2)cc1", "note": "(centres unmarked) [Example 103, 4-(2-Dimethylamino-ethoxy)-N-[8-(6-dimethylamino-pyridin-2-yl)-2,3-dihydro-benzo[1,4]dioxin-2-ylmethyl]-benzamide]", "SPR Response Units": 64}
